Key:
Format in all cases: cell-based
CRBN^−/− NCI-H929 cells = experiment: Cell apoptosis assay, CRBN knockout cells
Description: […] NCI-H929 and MV-4-11 cells were seeded at a density of 1 × 10^6 cells/well in 6-well tissue culture-treated plates. […] On day 7, GFP-positive cells were sorted as single cells into 96-well plates. Isolated single-cell clones were screened via western blot analysis, using wild-type NCI-H929 or MV-4-11 cells as positive controls.
Cells (NCI-H929 and MV-4-11) were seeded at a density of 1 × 10^6 cells per well into 6-well dishes. […] Apoptosis was assessed using an Annexin V-FITC kit (#ab14085; Abcam, MA, USA) on a FACS Calibur Flow Cytometer (Becton Dickinson, Franklin Lakes, NJ, USA). […] Finally, the samples were analyzed using a FACS Calibur Flow Cytometer.

OPM-2 = experiment: Cell viability (CCK-8) assay; conditions: Homo sapiens, OPM-2; MM, 96 h; read-out: IC50 (μM) OPM-2
Description: (§1) The plated at a density of 15,000 cells per well, and each well contained 100 µL of medium. Subsequently, different compounds (MGD-AX, MGD-BX, MGD-CX) were added to each well. […] To evaluate the antiproliferative effects of these compounds, the Cell Counting Kit-8 (CCK-8, #CX007, Epizyme, Shanghai, China) was used. All procedures were carried out in strict accordance with the manufacturer’s instructions (Dojindo Laboratories, Mamoto Ken, Japan).

RPMI-8226 = experiment: Cell viability (CCK-8) assay; conditions: Homo sapiens, RPMI-8226; MM, 96 h; read-out: IC50 (μM) RPMI-8226
Description: as §1

WSU-DLCL-2 = experiment: Cell viability (CCK-8) assay; conditions: Homo sapiens, WSUDLCL2; DLBCL, 96 h; read-out: IC50 (μM) WSU-DLCL-2
Description: as §1

NCI-H929 = experiment: Cell viability (CCK-8) assay; conditions: Homo sapiens, NCI-H929, 96 h
Description: as §1

MUTZ-1 = experiment: Cell viability (CCK-8) assay; conditions: AML, 96 h; read-out: IC50 (μM) MUTZ-1
Description: as §1

U2932 = experiment: Cell viability (CCK-8) assay; conditions: Homo sapiens, U2932; DLBCL, 96 h; read-out: IC50 (μM) U2932
Description: as §1

TMD8 = experiment: Cell viability (CCK-8) assay; conditions: Homo sapiens, TMD8; DLBCL, 96 h; read-out: IC50 (μM) TMD8
Description: as §1

MV-4-11 = experiment: Cell viability (CCK-8) assay; conditions: for IC50: Homo sapiens, MV4-11, 96 h, 96 h, CCK-8
Description: as §1

KG-1 = experiment: Cell viability (CCK-8) assay; conditions: Homo sapiens, KG-1; AML, 96 h; read-out: IC50 (μM) KG-1
Description: as §1

endogenous IKZF1 = target: T1, endogenous IKZF1 (Homo sapiens, UniProt Q13422+Q96SW2); experiment: Immunoblot analysis of endogenous protein; conditions: both NCI-H929 and MV-4-11 cells, 24 h, greater than pomalidomide
T1 construct: endogenous in cells; host or cells: NCI-H929 and MV-4-11
T1 sequence (Q13422 whole entry): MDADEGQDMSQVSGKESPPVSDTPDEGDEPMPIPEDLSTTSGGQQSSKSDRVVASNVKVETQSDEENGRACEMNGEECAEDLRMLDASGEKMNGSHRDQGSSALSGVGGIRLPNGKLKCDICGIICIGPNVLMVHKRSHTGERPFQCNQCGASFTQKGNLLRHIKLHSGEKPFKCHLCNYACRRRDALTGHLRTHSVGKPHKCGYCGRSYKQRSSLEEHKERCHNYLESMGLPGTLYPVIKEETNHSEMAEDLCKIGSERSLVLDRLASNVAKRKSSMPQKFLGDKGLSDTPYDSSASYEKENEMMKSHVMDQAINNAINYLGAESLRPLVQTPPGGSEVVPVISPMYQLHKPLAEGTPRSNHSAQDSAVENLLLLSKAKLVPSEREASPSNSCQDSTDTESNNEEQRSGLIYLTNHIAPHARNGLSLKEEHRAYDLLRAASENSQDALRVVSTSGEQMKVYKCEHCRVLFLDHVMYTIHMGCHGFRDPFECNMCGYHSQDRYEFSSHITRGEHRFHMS
T1 sequence (Q96SW2 whole entry): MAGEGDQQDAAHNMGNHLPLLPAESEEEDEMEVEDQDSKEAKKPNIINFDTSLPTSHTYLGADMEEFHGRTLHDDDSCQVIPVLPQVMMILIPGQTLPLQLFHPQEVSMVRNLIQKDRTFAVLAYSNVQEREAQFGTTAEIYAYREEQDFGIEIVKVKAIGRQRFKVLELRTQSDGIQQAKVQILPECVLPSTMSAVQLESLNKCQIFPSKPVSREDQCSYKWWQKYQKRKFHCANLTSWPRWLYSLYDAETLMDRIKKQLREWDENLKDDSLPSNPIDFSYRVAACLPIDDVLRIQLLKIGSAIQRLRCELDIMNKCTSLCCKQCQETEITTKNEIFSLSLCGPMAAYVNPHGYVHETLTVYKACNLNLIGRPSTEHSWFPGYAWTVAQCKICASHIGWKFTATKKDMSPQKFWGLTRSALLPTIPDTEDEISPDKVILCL
T1 sequence (Q16531 whole entry partner): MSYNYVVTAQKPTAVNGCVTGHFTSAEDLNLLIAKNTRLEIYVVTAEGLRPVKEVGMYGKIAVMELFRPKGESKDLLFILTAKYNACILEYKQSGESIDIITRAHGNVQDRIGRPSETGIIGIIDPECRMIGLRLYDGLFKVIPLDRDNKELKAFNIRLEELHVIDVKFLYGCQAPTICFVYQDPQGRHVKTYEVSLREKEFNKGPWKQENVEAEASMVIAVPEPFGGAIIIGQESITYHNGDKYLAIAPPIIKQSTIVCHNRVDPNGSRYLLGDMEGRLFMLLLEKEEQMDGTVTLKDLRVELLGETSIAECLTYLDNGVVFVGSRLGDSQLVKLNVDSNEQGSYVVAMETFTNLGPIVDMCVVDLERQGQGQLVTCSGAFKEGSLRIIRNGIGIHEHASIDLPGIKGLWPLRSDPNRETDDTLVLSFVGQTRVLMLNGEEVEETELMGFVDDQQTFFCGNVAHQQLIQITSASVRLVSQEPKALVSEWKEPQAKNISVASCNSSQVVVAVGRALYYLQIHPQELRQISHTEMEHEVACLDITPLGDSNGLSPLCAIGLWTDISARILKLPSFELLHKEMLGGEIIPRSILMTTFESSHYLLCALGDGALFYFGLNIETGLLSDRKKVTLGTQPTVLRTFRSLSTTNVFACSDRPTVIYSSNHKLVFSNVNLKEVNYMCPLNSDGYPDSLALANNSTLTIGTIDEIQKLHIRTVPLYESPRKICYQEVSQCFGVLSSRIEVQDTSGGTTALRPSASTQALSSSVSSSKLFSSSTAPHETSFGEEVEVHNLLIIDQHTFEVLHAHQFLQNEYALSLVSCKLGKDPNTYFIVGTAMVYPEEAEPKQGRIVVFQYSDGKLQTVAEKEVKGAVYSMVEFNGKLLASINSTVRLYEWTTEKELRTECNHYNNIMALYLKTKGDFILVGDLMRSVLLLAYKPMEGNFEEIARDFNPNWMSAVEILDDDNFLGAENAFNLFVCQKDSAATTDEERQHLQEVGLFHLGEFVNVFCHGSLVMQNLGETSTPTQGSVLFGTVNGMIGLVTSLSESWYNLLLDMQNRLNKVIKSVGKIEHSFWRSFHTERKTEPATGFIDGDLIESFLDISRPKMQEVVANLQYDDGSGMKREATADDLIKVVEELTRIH
Description: (§2) Cells (NCI-H929 and MV-4-11) were plated into 6-well plates. They were then treated with different concentrations (0, 0.01, 0.1, 1, 10 μM) of the compounds (MGD-A7, MGD-C9) or the designated time periods. Afterward, the cells were washed with phosphate-buffered saline (PBS, pH = 7.2–7.4, 1×). Next, they were lysed using RIPA buffer (#R0278-500ML, Sigma-Aldrich, MO, USA), and the cell lysates were precisely measured. Following this, the total protein lysates underwent 10% sodium dodecyl sulfate-polyacrylamide gel electrophoresis (SDS-PAGE). This method efficiently separated the proteins based on their molecular weights. Subsequently, the separated proteins were transferred onto a nitrocellulose membrane (#HATF00010, […], Madison, WI, USA). The membranes were then successively incubated with the indicated primary antibodies. These antibodies were diluted in 5% bovine serum albumin (BSA) in Tris-buffered saline with Tween 20 (TBST, #TF103; Epizyme, Shanghai, China). The incubation was conducted overnight at 4°C with gentle agitation. The secondary antibodies were also diluted in 5% BSA in TBST (#TF103; Epizyme, Shanghai, China). […] Finally, after thorough washing with TBST, the membranes were developed using an enhanced chemiluminescence (ECL) substrate (#WBULS0100, Sigma-Aldrich). The chemiluminescent signal was detected, and membrane images were captured with an Imaging system (Bio-Rad, Hercules, CA, USA). ImageJ analysis software (V1.8.0.112, National Institutes of Health, NIH, Bethesda, MD, USA) was employed to analyze the intensity of protein bands, aiming to quantify the relative expression levels of the target proteins. The half-maximal degradation concentration (DC50) value, which indicates the concentrations of test compounds showing 50% protein degradation efficacy, was calculated using GraphPad Prism 8.0.

endogenous CK1α = target: T2, endogenous CK1α (Homo sapiens, UniProt P48729); experiment: Immunoblot analysis of endogenous protein; conditions: both NCI-H929 and MV-4-11 cells, up to 10 μM, 24 h
T2 construct: endogenous in cells; host or cells: NCI-H929 and MV-4-11
T2 sequence (Q96SW2 whole entry partner): as the sequence (Q96SW2 whole entry) above
T2 sequence (Q16531 whole entry partner): as the sequence (Q16531 whole entry partner) above
T2 sequence (P48729 whole entry): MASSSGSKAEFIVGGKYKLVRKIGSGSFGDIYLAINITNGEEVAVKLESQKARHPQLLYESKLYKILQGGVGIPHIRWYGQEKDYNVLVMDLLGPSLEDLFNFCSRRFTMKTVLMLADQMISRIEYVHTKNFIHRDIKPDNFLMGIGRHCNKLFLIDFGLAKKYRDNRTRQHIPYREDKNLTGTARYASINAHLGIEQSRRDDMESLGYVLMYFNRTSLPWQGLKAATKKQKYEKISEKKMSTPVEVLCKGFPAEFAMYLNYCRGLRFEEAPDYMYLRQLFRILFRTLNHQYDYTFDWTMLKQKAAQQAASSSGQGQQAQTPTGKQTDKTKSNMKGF
Description: as §2

endogenous GSPT1 = target: T3, endogenous GSPT1 (Homo sapiens, UniProt P15170); experiment: Immunoblot analysis of endogenous protein; conditions: both NCI-H929 and MV-4-11 cells, up to 10 μM, 24 h
T3 construct: endogenous in cells; host or cells: NCI-H929 and MV-4-11
T3 sequence (Q96SW2 whole entry partner): as the sequence (Q96SW2 whole entry) above
T3 sequence (Q16531 whole entry partner): as the sequence (Q16531 whole entry partner) above
T3 sequence (P15170 whole entry): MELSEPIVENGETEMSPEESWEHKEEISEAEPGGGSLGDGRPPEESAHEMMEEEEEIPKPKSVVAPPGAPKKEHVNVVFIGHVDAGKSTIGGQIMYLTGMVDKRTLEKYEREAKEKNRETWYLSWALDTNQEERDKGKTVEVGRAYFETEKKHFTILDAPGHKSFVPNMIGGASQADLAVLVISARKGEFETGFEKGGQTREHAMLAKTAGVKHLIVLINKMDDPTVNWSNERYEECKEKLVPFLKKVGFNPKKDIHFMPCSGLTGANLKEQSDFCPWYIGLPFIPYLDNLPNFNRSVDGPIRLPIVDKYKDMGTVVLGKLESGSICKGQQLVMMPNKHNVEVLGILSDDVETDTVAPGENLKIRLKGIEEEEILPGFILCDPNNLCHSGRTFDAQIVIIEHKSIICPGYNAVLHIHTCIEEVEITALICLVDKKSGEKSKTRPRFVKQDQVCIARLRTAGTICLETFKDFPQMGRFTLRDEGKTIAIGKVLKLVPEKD
Description: as §2

endogenous IKZF3 = target: T4, endogenous IKZF3 (Homo sapiens, UniProt Q96SW2+Q9UKT9); experiment: Immunoblot analysis of endogenous protein; conditions: both NCI-H929 and MV-4-11 cells, 24 h, greater than pomalidomide
T4 construct: endogenous in cells; host or cells: NCI-H929 and MV-4-11
T4 sequence (Q9UKT9 whole entry): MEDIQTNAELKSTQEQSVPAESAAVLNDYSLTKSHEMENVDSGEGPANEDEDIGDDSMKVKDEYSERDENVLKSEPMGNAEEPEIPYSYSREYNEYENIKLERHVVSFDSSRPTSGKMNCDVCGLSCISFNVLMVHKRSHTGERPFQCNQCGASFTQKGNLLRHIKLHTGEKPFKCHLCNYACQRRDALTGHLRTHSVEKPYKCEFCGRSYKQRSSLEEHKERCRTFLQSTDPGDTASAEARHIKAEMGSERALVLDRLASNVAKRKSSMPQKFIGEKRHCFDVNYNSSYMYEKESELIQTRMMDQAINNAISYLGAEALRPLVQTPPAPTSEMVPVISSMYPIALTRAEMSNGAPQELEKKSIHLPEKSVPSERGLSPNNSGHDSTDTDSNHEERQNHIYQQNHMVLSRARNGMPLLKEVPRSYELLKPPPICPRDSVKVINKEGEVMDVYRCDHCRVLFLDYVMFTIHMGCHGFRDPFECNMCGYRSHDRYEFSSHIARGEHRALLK
T4 sequence (Q96SW2 whole entry): as the sequence (Q96SW2 whole entry) above
T4 sequence (Q16531 whole entry partner): as the sequence (Q16531 whole entry partner) above
Description: as §2

IKZF1-HiBiT = target: T5, IKZF1-HiBiT (Homo sapiens, UniProt Q13422+Q96SW2); experiment: Quantitative degradation assay using the HiBiT system (HEK293T); conditions: for reduction in IKZF1: 1 μM, time course; for DC50 / Dmax: HEK293T IKZF1-HiBiT, 24 h; for Dmax: HEK-293T, read-out: maximal degradation (Dmax) on IKZF1
T5 construct: expressed in transfected cells; host or cells: HEK293T
T5 sequence (Q13422 whole entry): as the sequence (Q13422 whole entry) above
T5 sequence (Q96SW2 whole entry): as the sequence (Q96SW2 whole entry) above
T5 sequence (Q16531 whole entry partner): as the sequence (Q16531 whole entry partner) above
Description: (§3) An in vitro quantitative degradation assay utilizing the HiBiT system was carried out as previously described. To evaluate the degradation of IKZF1, IKZF2, and IKZF3 proteins, HEK293T cell lines stably expressing IKZF1-, IKZF2-, IKZF3-, GSPT1- or CK1α-HiBiT were cultured in 96-well plates at 12,000 cells per well. […] After the treatment, cell lysis was carried out using the Nano-Glo HiBiT Lytic Detection System (#N3040, Promega). All lysis operations were strictly carried out according to the manufacturer’s specific protocol. Then, the SpectraMax iD3 instrument (Molecular Devices, San Jose, CA, USA) was used to detect the luminescent signals released by the HiBiT-tagged neosubstrates.

IKZF3-HiBiT = target: T6, IKZF3-HiBiT (Homo sapiens, UniProt Q96SW2+Q9UKT9); experiment: as above; conditions: for reduction in IKZF3: 1 μM, time course; for DC50 / Dmax: HEK293T IKZF3-HiBiT, 24 h; for Dmax: HEK-293T, read-out: maximal degradation (Dmax) on IKZF3
T6 construct: expressed in transfected cells; host or cells: HEK293T
T6 sequence (Q9UKT9 whole entry): as the sequence (Q9UKT9 whole entry) above
T6 sequence (Q96SW2 whole entry): as the sequence (Q96SW2 whole entry) above
T6 sequence (Q16531 whole entry partner): as the sequence (Q16531 whole entry partner) above
Description: as §3

IC50 (RPMI-8226)	IC50 (NCI-H929)	IC50 (MV-4-11)	degradation of endogenous IKZF1 (endogenous IKZF1)	degradation of endogenous CK1α (endogenous CK1α)	degradation of endogenous GSPT1 (endogenous GSPT1)	degradation of endogenous IKZF3 (endogenous IKZF3)	DC50 (IKZF1-HiBiT)	Dmax (IKZF1-HiBiT)	DC50 (IKZF3-HiBiT)	Dmax (IKZF3-HiBiT)	Compound	apoptosis (in words) (CRBN^−/− NCI-H929 cells)	IC50 (OPM-2)	IC50 (WSU-DLCL-2)	IC50 (MUTZ-1)	IC50 (U2932)	IC50 (TMD8)	IC50 (KG-1)	further results
2.11 µM	0.67 ± 0.1 µM	0.59 ± 0.07 µM	effectively induced the degradation	minimal degradation effects	minimal degradation effects	effectively induced the degradation	249 nM	89.4%	110 nM	86.4%	CN1CCN(Cc2cccc(C(=O)NC3CCC(=O)NC3=O)c2)CC1 (centres unmarked) [MGD-A7, N-(2,6-dioxopiperidin-3-yl)-3-((4-methylpiperazin-1-yl)methyl)benzamide]	neither compound elicited apoptosis	0.153 µM	3.82 µM	13.2 µM	3.34 µM	6.77 µM	1.24 µM	reduction in IKZF1 (IKZF1-HiBiT; 12 h): > 60%; reduction in IKZF3 (IKZF3-HiBiT; 12 h): > 80%
1.23 µM	0.26 ± 0.03 µM	0.21 ± 0.02 µM	effectively induced the degradation	minimal degradation effects	minimal degradation effects	effectively induced the degradation	96 nM	90.3%	57 nM	92.1%	CN1CCN(Cc2cccc(C(=O)NC3CCC(=O)NC3=O)c2F)C(=O)C1 (centres unmarked) [MGD-C9, N-(2,6-dioxopiperidin-3-yl)-2-fluoro-3-((4-methyl-2-oxopiperazin-1-yl)methyl)benzamide]	neither compound elicited apoptosis	0.0845 µM	2.24 µM	10.5 µM	1.25 µM	5.03 µM	0.33 µM	fold higher antiproliferative activity than avadomide (MV-4-11; MV-4-11 cells): approximately 4 fold; reduction in IKZF1 (IKZF1-HiBiT; 8 h): > 60%; reduction in IKZF3 (IKZF3-HiBiT; 8 h): > 70%

— publication PMC12494099, “Discovery and Characterization of Novel IKZF1/3 Glue Degraders against Multiple Hematological Cancer Cell Lines” (Oncology Research, 2025)
